Measurements from US20120077732A1, “CYCLIC PEPTIDES AND USES THEREOF” (SYDNEY WEST AREA HEALTH SERVICE, priority 2008, published 2012).
Converted amounts (≈) assume the structure as drawn. Read-outs that look alike come from different tables or passages of the source.

Legend:
[1] = tested on: Wistar rats; assay: Adjuvant-induced arthritis model; type: in vivo; conditions: given subcutaneously, four daily injections of 6 mg at onset of arthritis
[2] = tested on: S. pneumoniae; assay: Standard disk susceptibility testing (NCCLS), S. pneumoniae; type: cell-based
Procedure: (§1) The synthetic C1 peptide and its analogues were tested using Standard disk susceptibility testing by National Committee for […] Laboratory Standards (NCCLS) against, S. aureus, E. coli and S. pneumoniae. […]

[3] = tested on: S. aureus; type: cell-based
Procedure: as §1

[4] = tested on: E. coli; assay: Standard disk susceptibility testing (NCCLS), E. coli; type: cell-based
Procedure: as §1

[5] = Surface plasmon resonance binding to DMPG liposomes; conditions: SPR, L1 sensor chip, 50 μM, 25° C.
Procedure: (§2) Model membranes composed of zwitterionic and anionic phospholipids were prepared as previously described (Bender et al., 2004). Briefly, DMPC and DMPG were dissolved in dry chloroform and chloroform/methanol (2:1) respectively to give 10 mg/ml solutions. […] The solution was sonicated in an ultrasonic bath for 20 min. Eight cycles of freeze/thawing was followed by extrusion through polycarbonate filters, first 100 nm (21 times) then 50 nm pore diameter (21 times), using a Lipofast apparatus (Avestin, Ottawa, Canada) and SUVs were used immediately. SPR was carried out on a BIAcore 2000 instrument using Pioneer Sensor Chip L1 and HEPES (HBS-N, Biacore, Upssala, Sweden) as running buffer. The chip surface was cleaned with 40 mM octyl glycoside (30 μl, 10 μl/min) followed liposomes (SUV) (100 μl, 5 μl/min). 10 mM NaOH (40 μl, 10 μl/min) removed any multilamellar vesicles from the surface before injecting the lipopeptide solutions (100 μl, 5 μl/min). The dissociation stage was 1200 sec. […] All SPR experiments were run at 25° C. and all analyses were performed using the BIAevaluation software (Biacore, Uppsala, Sweden). Lipopeptide binding was expressed as the difference in signal between points before sample injection and after dissociation.

[6] = tested on: allergic mice (OVA model); type: in vivo; conditions: 200 μg subcutaneous; compared to historical OVA/OVA mice
Procedure: The effect on the inflammatory response of the 200 μg dose and subcutaneous route of administration of cyclic C1 peptide determined in Example 8 was tested with the OVA (ovalbumin) model (Temelkovski, et al. (1998); Foster, et al. (2000); Asquith et al (2008)) according to the following study design. At the endpoint mice were euthanased and BALF was obtained by cannulating the trachea and flushing the airways with two 0.8 ml volumes of Hank's Balanced Salt Solution (HBSS). Recovered cells were treated with erythrocyte lysis buffer, cytospins prepared and stained with May-Grunwald Giemsa and differential leukocyte counts performed based on morphological criteria (min 200 cells counted/slide). Statistical analysis was performed using a student's unpaired t-test. Results were compared to historical data.

[7] = tested on: 2B4.11 cells; type: cell-based; conditions: 50 μM
[8] = Surface plasmon resonance binding to DMPC liposomes; conditions: SPR
Procedure: as §2

[9] = tested on: allergic mice (OVA/OVA); assay: Allergic airways disease (OVA) model: airways hyperreactivity to methacholine; type: in vivo; design: key to Airway Resistance / Airway Compliance: nc: no change; ↑: increase; ↓: decrease
[10] = tested on: 2B4 cells; assay: T-cell activation with PMA and ionomycin, IL-2 production; conditions: PMA 40 ng/mL + ionomycin 5 μg/mL; 50 μM; ±SD
Procedure: Further, T-cells were activated using PMA and ionomycin stimulation. The method employed to activate T cells utilized the protein kinase C activating PMA in combination with the calcium ionophore, ionomycin. In combination, PMA/ionomycin effectively activate T cells downstream from the TCR. Phorbol 12-myristate 13-acetate (PMA) (40 ng/mL) and ionomycin (5 μg/mL) were added to 2B4 cells (5×10^4) and incubated with each CP-conjugate at 50 μM in 0.5% DMSO in 96-well, round bottom microtiter plates for 24 h at 37° C. with 5% CO2 in a total volume of 250 μL. Supernatants were then collected and analysed for IL-2 production. All CP-conjugates were tested simultaneously in triplicate wells, and each experiment was performed on three separate occasions.

[11] = tested on: 2B4.11 cells; assay: T-cell activation with 2C11-145 antibody (CD3 crosslinking), IL-2 production; type: cell-based; conditions: CD3 crosslinking with 2C11-145; 50 μM; relative to DMSO control; ±SD
Procedure: To analyse the mode of action of C1, T-cells were activated using 2C11-145 and H57-597 antibodies. The H57-597 antibody is directed against the TCRβ chain, and when administered at sub-optimal doses in conjunction with accessory cells (LK35.2), is capable of activating T cells. […] C1 was added to give a final reaction volume of 250 μL at 50 μM and 0.5% DMSO. […] T cells were also activated using the 2C11-145 antibody to crosslink the CD3 chains of the TCR, thereby bypassing the antigen recognition sub-units of the TCRα/β.

[12] = tested on: allergic mice (OVA/OVA); assay: Allergic airways disease (OVA) model: local and systemic OVA-specific cytokine production; type: in vivo; design: key to Spleen OVA-stimulated IL-5 / Spleen OVA-stimulated IL-13 / LN OVA-stimulated IL-5 / LNOVA stimulated IL-13: nc: no change; ↑: increase; ↓: decrease
[13] = tested on: trypsin; type: in vitro ADME
Procedure: The effect of trypsin on C1 and CP was studied by incubating each peptide (1 μg/μl) in methanol and ammonium bicarbonate (0.1M) with 125 ng/μl of trypsin at pH 8 and 37° C. The effect of trypsin after incubation with CP and C1 was followed by mass spectrometry. […]

[14] = tested on: NOD mice; assay: Treatment of NOD mice, blood glucose level / diabetes; type: in vivo; conditions: i.p. injections of 0.1 mg
Procedure: NOD mice were fasted for at least 1.5 h prior to blood glucose level (BGL) measurements. In the morning, all mice were treated with intraperitoneal (i.p.) injections of 0.1 mg C1 and BGLs were taken. Control mice received 0.2 mL of water.

[15] = tested on: 2B4.11 hybridoma; assay: Antigen presentation assay (IL-2 produced in response to antigen); type: cell-based; conditions: for IL2 %: 50 μM, relative to DMSO control (100%); for IL-2 production, % of the solvent only control value: 0.5% DMSO, ±SD
[16] = 200 μg s.c. during challenge, allergic mice
[17] = 200 μg/100 μl s.c. during OVA challenge, compared to OVA/OVA alone

SMILES: CC(C)C[C@@H]1NC(=O)[C@@H](CC(C)C)NC(=O)[C@H](CCCNC(=N)N)NC(=O)[C@@H](CC(C)C)NC(=O)CNC(=O)[C@@H](C(C)C)NC(=O)[C@H](CCCCN)NC(=O)[C@@H](CC(C)C)NC(=O)[C@H](CC(C)C)NC(=O)[C@@H](CC(C)C)NC1=O [C1, LDRLDLLDLLDKVDG]
- effect in reducing inflammation (total foot swelling) [1]: comparable effect to cyclosporin
- antimicrobial activity, S. pneumoniae ([2]; peptide 10 μg/ml): −ve
- antimicrobial activity, S. pneumoniae ([2]; peptide 100 μg/ml): −ve
- antimicrobial activity, S. pneumoniae ([2]; peptide 1000 μg/ml): −ve
- MIC against S. aureus [3]: 100 µg/mL (≈ 89.3 µM)
- antimicrobial activity, S. aureus ([3]; peptide 10 μg/ml): −ve
- antimicrobial activity, S. aureus ([3]; peptide 100 μg/ml): +ve
- antimicrobial activity, S. aureus ([3]; peptide 1000 μg/ml): +ve
- antimicrobial activity, E. coli ([4]; peptide 10 μg/ml): −ve
- antimicrobial activity, E. coli ([4]; peptide 100 μg/ml): −ve
- antimicrobial activity, E. coli ([4]; peptide 1000 μg/ml): −ve
- binding to DMPG (anionic) liposomes [5]: bound much stronger
- eosinophils in BALF [6]: decrease
- macrophages in BALF [6]: significant reduction
- total inflammatory cells in BALF [6]: reduction
- IL-2 production [7]: 71.42%+/−14.275D
- binding affinity to DMPC model membrane relative to CP [8]: approximately 10 fold
- binding to DMPC (zwitterionic) liposomes ([8]; L1 sensor chip, 50 μM, 25° C.): bound much stronger
- binding relative to all the other analogues examined (with the exception of C2) ([8]; model membranes): > 10 fold
- airway resistance in response to methacholine challenge [9, 16]: no significant effect
- dynamic compliance in response to methacholine challenge [9, 16]: no significant effect
- Airway Compliance [9, 17]: ↑
- Airway Resistance [9, 17]: nc
- IL-2 production relative to the DMSO control [10]: 62.83%+/−17.60
- % IL-2 production [11]: 50.00%+/−15.79
- locally produced (peribronchial lymph node derived) IL-5 [12, 16]: significant decrease
- locally produced (peribronchial lymph node derived) IL-13 [12, 16]: significant decrease
- systemic (spleen derived) IL-5 [12, 16]: significant decrease
- systemic (spleen derived) IL-13 [12, 16]: significant decrease
- LN OVA-stimulated IL-5 [12, 17]: ↓
- LNOVA stimulated IL-13 [12, 17]: ↓
- Spleen OVA-stimulated IL-5 [12, 17]: ↓
- Spleen OVA-stimulated IL-13 [12, 17]: ↓
- stability without trypsin, 3 hours (Mass spectroscopy-MS) [13]: No degradation product
- stability without trypsin, 24 hours (MS) [13]: No degradation product
- blood glucose level control versus control group [14]: more tightly controlled
- mice that developed diabetes (BGL higher than 15 mM on two consecutive days) ([14]; preliminary results, control 7/21): 2/7
- % Ave IL2 Production ([15]; average, Tables 1-3): 17%
- IL2 % ([15]; fifth IL2 column (individual experiment in triplicate)): 15.6%
- IL2 % ([15]; fourth IL2 column (individual experiment in triplicate)): 18.9%
- IL-2 production, % of the solvent only control value ([15]; peptide 25 μM): 59.69%±23.54
- IL-2 production, % of the solvent only control value ([15]; peptide 50 μM): 7.73%±4.97
